# Experimental data from patent publication US20240252581A1, “COMPOSITIONS AND METHODS FOR TREATING RESPIRATORY DISTRESS” (S.I.S. SHULOV INNOVATIVE SCIENCE LTD., priority 2021, published 2024).
# Values joined by “and” are separate entries in the source; they are usually repeats but may differ in a detail not shown here. Identical values can stand only once. Square brackets hold non-standard residues; d marks the D form. Peptide text beside a SMILES is read from it. * marks the point of attachment. pGlu = O=C1CC[C@@H](C(=O)O)N1; Octanoyl = CCCCCCCC(=O)*
# Tested on: inflammatory cytokines in BALF
# Experiment: LPS-induced acute lung injury / ARDS mouse model: BALF cytokine concentrations (multiplex ELISA)
# Assay type: in vivo, BALB/c mice
# Design: key to INF-γ / IL-1α / IL-5 / IL-6 / IL-10 / IL-12 / IL-17 / KC / MCP-1 / TNF-α / CXCL10 / RANTES / G-CSF / CCL3: (+) indicates activation; (−) indicates inhibition
# Method: In order to test the efficacy of ZEP3 sodium on lung inflammation, the lipopolysaccharide (LPS)-induced acute lung injury model was used. In particular, LPS was administered intratracheally at doses of 10 or 40 mg/kg body weight (BW) corresponding to 0.2 or 0.8 mg/mouse, respectively.
# ZEP3 sodium was administered by inhalation (INH) at doses of 25 or 250 mg/kg BW (0.5 or 5 mg/mouse, respectively), or intratracheally (IT) at doses of 5 or 20 mg/kg BW (0.1 or 0.4 mg/mouse, respectively) 6 hours after LPS administration and its effect was measured 72 hours following administration in the branchial alveolar fluid (BALF) using FACS instrumentation.
# To detect cytokine release in lungs fluid, cytokine concentrations were assessed in BALF samples using high sensitivity multiplex ELISA assays for: IFN-γ, IL-1α, IL-5, IL-6, IL-10, IL-12 (p70), IL-17A, KC, MCP-1, TNF-α, IP-10, RANTES, G-CSF, MIP-1α and RANTES. ZEP3Na administered intratracheally at 0.1 and 0.4 mg per mouse after instillation of 0.2 mg LPS inhibited the concentration of following interleukins: IL-1α, IL-6, IL-10, IL-12, IL-17, KC, MCP-1, TNF-α and G-CSF.
# [1] = Group 9: LPS 0.2 mg + ZEP3Na 0.4 mg IT, BALF, group mean
# [2] = Group 9: LPS 0.2 mg + ZEP3Na 0.4 mg IT, BALF, individual mice
# [3] = LPS 0.2 mg + ZEP3Na (IT) 0.1 mg, BALF
# [4] = LPS 0.2 mg + ZEP3Na (IT) 0.4 mg, BALF
# [5] = LPS 0.8 mg + ZEP3Na (INH) 0.5 mg, BALF
# [6] = LPS 0.8 mg + ZEP3Na (INH) 5 mg, BALF
# [7] = LPS 0.8 mg + ZEP3Na (IT) 0.1 mg, BALF
# [8] = LPS 0.8 mg + ZEP3Na (IT) 0.4 mg, BALF
smiles,measurement,setting,value
"CCCCCCCC(=O)NCCCC[C@H](NC(=O)[C@H](Cc1c[nH]c2ccccc12)NC(=O)[C@H](CC(N)=O)NC(=O)[C@@H]1CCC(=O)N1)C(=O)O [ZEP3Na, pGlu-Asn-Trp-Lys(Octanoyl)-ONa] ([pGlu]NWK(Octanoyl)-OH)",KC,[1],751.10 pg/mL
same,MCP-1,[1],180.27 pg/mL
same,G-CSF,[2],176.85 pg/mL and 200.57 pg/mL and 585.70 pg/mL and 211.19 pg/mL and 8.45 pg/mL and 138.72 pg/mL and 227.63 pg/mL
same,G-CSF (pg/ml),[2],undetected
same,IL-12 (p70),[2],408.22 pg/ml and 471.74 pg/ml and 15.41 pg/ml (2×) and 262.69 pg/ml and 11.53 pg/ml and 8.09 pg/ml and 115.45 pg/ml and 140.60 pg/ml
same,IL-17A,[2],386.05 pg/mL and 1361.97 pg/mL and 15.26 pg/mL and 3386.75 pg/mL and 22.20 pg/mL and 4.57 pg/mL and 2.99 pg/mL and 21.13 pg/mL and 55.67 pg/mL
same,KC,[2],1154.03 pg/mL and 1559.44 pg/mL and 1143.16 pg/mL and 1153.90 pg/mL and 127.59 pg/mL and 63.82 pg/mL and 75.31 pg/mL and 656.41 pg/mL and 826.24 pg/mL
same,MCP-1,[2],240.17 pg/mL and 115.81 pg/mL and 823.17 pg/mL and 151.55 pg/mL and 14.15 pg/mL and 102.63 pg/mL and 174.95 pg/mL
same,MCP-1 (pg/ml),[2],undetected
same,CXCL10,[3],−
same,G-CSF,[3],−
same,IL-1α,[3],−
same,IL-6,[3],−
same,IL-10,[3],−
same,IL-12,[3],−
same,IL-17,[3],−
same,KC,[3],−
same,MCP-1,[3],−
same,TNF-α,[3],−
same,CXCL10,[4],−
same,G-CSF,[4],−
same,IL-1α,[4],−
same,IL-6,[4],−
same,IL-10,[4],−
same,IL-12,[4],−
same,IL-17,[4],−
same,KC,[4],−
same,MCP-1,[4],−
same,TNF-α,[4],−
same,CCL3,[5],−
same,CXCL10,[5],−
same,G-CSF,[5],−
same,IL-1α,[5],−
same,IL-5,[5],−
same,IL-6,[5],−
same,IL-10,[5],+
same,IL-12,[5],−
same,IL-17,[5],−
same,INF-γ,[5],−
same,KC,[5],−
same,MCP-1,[5],−
same,RANTES,[5],−
same,TNF-α,[5],−
same,CCL3,[6],−
same,CXCL10,[6],−
same,G-CSF,[6],−
same,IL-1α,[6],−
same,IL-5,[6],−
same,IL-6,[6],−
same,IL-10,[6],+
same,IL-12,[6],−
same,IL-17,[6],−
same,INF-γ,[6],−
same,KC,[6],−
same,MCP-1,[6],−
same,RANTES,[6],−
same,TNF-α,[6],−
same,IL-12,[7],−
same,TNF-α,[7],−
same,IL-12,[8],−
same,TNF-α,[8],−
same,"levels of INF-γ, IL-1α, IL-5, IL-6, IL-12, IL-17, KC, MCP-1, TNF-α, CXCL10, RANTES, G-CSF, and CCL3",administered by inhalation following LPS instillation,significantly inhibited the expression and reduced the levels
same,"levels of IL-1α, IL-6, IL-10, IL-12, IL-17, KC, MCP-1, TNF-α, CXCL10, and G-CSF",administered intratracheally following LPS instillation,significantly inhibited the expression and reduced the levels
same,"concentration of IL-1α, IL-6, IL-10, IL-12, IL-17, KC, MCP-1, TNF-α and G-CSF","intratracheally at 0.1 and 0.4 mg per mouse after instillation of 0.2 mg LPS, BALF",inhibited
